Test results reported in patent US12617818B2, “Compositions and methods for modulating myosin subfragment-2 coiled coil stability and methods for using them” (UNIVERSITY OF NORTH TEXAS, priority 2020, dated 2026).

System: rabbit skeletal myosin (myosin S2 coiled coil)
Assay: GFS with rabbit skeletal myosin tethered by S1 heads to G-actin
Assay type: biochemical
Description: To test stability and flexibility of myosin S2 peptide two different types of conjugation was performed to tether the molecule between the immobile edge and mobile edge. First conjugation was crosslinking the muscle myosin S2 peptides to immobile edge and mobile bead. A different conjugation was benefiting from the binding property of actin to myosin S1. Rabbit skeletal myosin molecule at myosin S1 position was bound with G-actin treated immobile edge and mobile bead.
This conjugation was done by first, treating glass coverslips and silica beads with 0.04% 3-aminopropyltriethoxylsilane in acetone to add the aminosilane groups to both glass coverslips and silica beads. To cross link G-actin to the aminosilanated glass coverslips and silica beads 740 mM 1-ethyl-3-(3 dimethyaminopropyl) carbodiimide was used with help of 60 μM N-hydroxysuccinamide. To block any unreacted group, glycine quenching solution was added. Lastly, both glass coverslips and silica beads went over several washes with low salt buffer and were stored in the same low salt buffer for GFS experiments.
The point of attachment to tether myosin molecule between immobile edge of the coverslip and mobile beads, was at the acto-myosin S1 binding region. The edge of the coverslips and silica beads are coated with G-actin molecules. […]

SMILES: CSCC[C@H](NC(=O)[C@H](CCC(=O)O)NC(=O)[C@H](CCCNC(=N)N)NC(=O)[C@H](CCC(=O)O)NC(=O)[C@H](CC(=O)O)NC(=O)[C@H](CCC(=O)O)NC(=O)[C@H](CC(C)C)NC(=O)[C@H](CCCNC(=N)N)NC(=O)[C@H](CCC(=O)O)NC(=O)[C@H](CC(N)=O)NC(=O)[C@H](CCSC)NC(=O)[C@@H](N)CCC(=O)O)C(=O)N[C@@H](CCCCN)C(=O)N[C@@H](C)C(=O)N[C@@H](CCC(=O)O)C(=O)N[C@@H](CC(C)C)C(=O)N[C@H](C(=O)N[C@@H](C)C(=O)N[C@@H](CCCCN)C(=O)O)[C@@H](C)O [Destabilizer]
- force required to uncoil myosin relative to absence of peptide (less) (destabilizer peptide vs control): 1.6 times
- Force required to uncoil the myosin molecule (length 100 nm, in presence of destabilizer peptide): 3.09±0.05 pN
